The source of these data is patent US8822484B2, “Fused thiazolo and oxazolo pyrimidinones” (Torrent Pharmaceuticals Limited, priority 2009, dated 2014).

Assay type in all cases: cell-based
One data set has as its system erythropoietin. Briefly: In vitro erythropoietin induction (ELISA of culture supernatant). The following applies: Hep3B cell line, relative to vehicle control; for EPO fold induction: 16 hours. (ELISA stands for enzyme-linked immunosorbent assay.)
Another data set concerns VEGF. Briefly: In vitro induction of vascular endothelial growth factor (ELISA of culture supernatant). Conditions: Hep3B cell line, 200 uM, 16 hours, relative to vehicle control. As to the method: Hep3B cell line (ATCC HB8064) was employed. […] Supernatant obtained was analyzed for VEGF by ELISA (R&D systems, USA).
The next data set deals with adrenomedullin mRNA. Briefly: In vitro induction of adrenomedullin (mRNA, real-time PCR). The following applies: Hep3B cell line, 200 uM, 6 hours, normalized to 18S rRNA, relative to vehicle control. As to the method: Hep3B cell line (ATCC HB8064) was employed. […] At the end of 6 hours, cells were lysed and total RNA was isolated. Expression of adrenomedullin mRNA along-with expression of 18S rRNA was monitored by real-time PCR. Adrenomedullin mRNA expression was normalized relative to the expression of 18S rRNA. The results were expressed as fold induction of adrenomedullin mRNA relative to vehicle treated control.

Protocol for erythropoietin: Hep3B cell line (ATCC HB8064) was employed. Induction of erythropoietin was carried out for the indicated dose of compounds for 16 hours duration. At the end of 16 hours, cell culture medium was collected and centrifuged to remove any debris. Supernatant obtained was analyzed for erythropoietin by ELISA (R&D systems, USA). The results were expressed as fold induction as compared to vehicle control.

As to `CC(C)[C@H](NC(=O)c1c(O)nc2sc3c(n2c1=O)CCC(C)(C)C3)C(=O)O` (single isomer, unassigned) [Compound 43, 2-[(2-Hydroxy-7,7-dimethyl-4-oxo-5,6,7,8-tetrahydro-4H-9-thia-1,4a-diaza-fluorene-3-carbonyl)-amino]-3-methyl-butyric acid (L-isomer)], the EPO fold induction result in the data set on erythropoietin (200 uM) was “+ (<2 fold)”. Take `C[C@@H](NC(=O)c1c(O)nc2sc3c(n2c1=O)CCC(C)(C)C3)C(=O)O` (single isomer, unassigned) [Compound 44, 2-[(2-Hydroxy-7,7-dimethyl-4-oxo-5,6,7,8-tetrahydro-4H-9-thia-1,4a-diaza-fluorene-3-carbonyl)-amino]-propionic acid (D-isomer)]: the EPO fold induction result in the data set on erythropoietin (200 uM) is recorded as “+ (<2 fold)”. Turning to `CC1(C)CCc2c(sc3nc(O)c(C(=O)N[C@H](C(=O)O)c4ccccc4)c(=O)n23)C1` (single isomer, unassigned) [Compound 55, [(2-Hydroxy-7,7-dimethyl-4-oxo-5,6,7,8-tetrahydro-4H-9-thia-1,4a-diaza-fluorene-3-carbonyl)-amino]-phenyl-acetic acid, L-isomer], the EPO fold induction result in the data set with erythropoietin (200 uM) is “+ (<2 fold)”. On to `O=C(O)CNC(=O)c1c(O)nc2sc3c(n2c1=O)CCC3` [Compound 11, [(2-Hydroxy-4-oxo-7,8-dihydro-4H,6H-cyclopenta[4,5]thiazolo[3,2-a]pyrimidine-3-carbonyl)-amino]-acetic acid], for which, in the data set with erythropoietin (200 uM), the EPO fold induction result is recorded as “+++ (5-8 fold)”. As for `O=C(O)CCNC(=O)c1c(O)nc2sc3c(n2c1=O)CCC3` [Compound 14, 3-[(2-Hydroxy-4-oxo-7,8-dihydro-4H,6H-cyclopenta[4,5]thiazolo[3,2-a]pyrimidine-3-carbonyl)-amino]-propionic acid], the EPO fold induction entry in the data set with erythropoietin (200 uM) is reported as “++ (2-4 fold)”. As for `COc1cc(OC)cc(C(=O)N2CCc3c(sc4nc(O)c(C(=O)NCC(=O)O)c(=O)n34)C2)c1` [Compound 41, {[7-(3,5-Dimethoxy-benzoyl)-2-hydroxy-4-oxo-5,6,7,8-tetrahydro-4H-9-thia-1,4a,7-triaza-fluorene-3-carbonyl]-amino}-acetic acid], the fold induction at 200 µM with erythropoietin (Homo sapiens, Hep3B, 16 h, 200 uM, read-out: EPO fold induction) was in the range of 2 to 4.

For `CC1(C)CCc2c(sc3nc(O)c(C(=O)NCC(=O)[O-])c(=O)n23)C1.CC1(C)CCc2c(sc3nc(O)c(C(=O)NCC(=O)[O-])c(=O)n23)C1.[Na+].[Na+]` [Compound 80, [(2-Hydroxy-7,7-dimethyl-4-oxo-5,6,7,8-tetrahydro-4H-9-thia-1,4a-diaza-fluorene-3-carbonyl)-amino]-acetic acid, Disodium salt], the EPO fold induction entry in the data set on erythropoietin (200 uM) is listed as “++++ (9-16 fold)”.

With `O=C([O-])CNC(=O)c1c(O)nc2sc3c(n2c1=O)CCCCC3.O=C([O-])CNC(=O)c1c(O)nc2sc3c(n2c1=O)CCCCC3.[Na+].[Na+]` [Compound 82, [(2-Hydroxy-4-oxo-6,7,8,9-tetrahydro-4H,5H-10-thia-1,4a-diaza-benzo[a]azulene-3-carbonyl)-amino]-acetic acid, Disodium salt], in the data set with VEGF, the “VEGF (Fold induction)” value is “++ (2-4 fold induction of VEGF)”. Further, the “Adrenomedullin mRNA (fold induction)” value with adrenomedullin mRNA is on record as “+++ (5-8 fold)”. Moreover, the EPO fold induction result with erythropoietin (50 uM) is “++++ (9-16 fold)”.
